# Test results from ChEMBL document CHEMBL6114967, “Design and synthesis of novel sulfur-substituted triptolide with the ability to induce autophagy through inhibition of SRSF1 expression” (Eur J Med Chem, 2025).
# Activity calls are given as the source filed them. No cut-off for these calls is given here.
# Tests used:
# AGS [1] = assay: Induction of autophagy in human AGS cells assessed as upregulation of Beclin1 protein level at 0.5 to 2 uM incubated for 48 hrs by Western blotting analysis; type: functional, cell-based; conditions: dose 0.5-2 µM
# [2] = Toxicity in male ICR mouse assessed as animal death at 1 g/Kg, ip measured after 7 days; type: organism-based; conditions: in vivo, 1000 mg/kg, 168 h, time 7 day
# AGS [3] = assay: Induction of apoptosis in human AGS cells assessed as necrotic cells at 0.5 uM incubated for 48 hrs by annexin V-FITC and PI staining based flow cytometry analysis (reference value: 0.44%); type: functional
# AGS [4] = assay: Induction of apoptosis in human AGS cells assessed as necrotic cells at 1 uM incubated for 48 hrs by annexin V-FITC and PI staining based flow cytometry analysis (reference value: 0.44%); type: functional
# HGC-27 [5] = assay: Induction of apoptosis in human HGC-27 cells assessed as late apoptotic cells at 1 uM incubated for 48 hrs by annexin V-FITC and PI staining based flow cytometry analysis (reference value: 5.02%); type: functional
# HGC-27 [6] = assay: Downregulation of SRSF1 protein level in human HGC-27 cells at 0.5 to 2 uM by Western blotting analysis; type: functional, cell-based; conditions: dose 0.5-2 µM
# AGS [7] = assay: Induction of apoptosis in human AGS cells assessed as late apoptotic cells at 2 uM incubated for 48 hrs by annexin V-FITC and PI staining based flow cytometry analysis (reference value: 3.15%); type: functional
# HGC-27 [8] = assay: Upregulation of MAP1LC3B mRNA expression in human HGC-27 cells at 2 uM incubated for 24 hrs; type: functional, cell-based
# HGC-27 [9] = assay: Induction of apoptosis in human HGC-27 cells assessed as late apoptotic cells at 0.5 uM incubated for 48 hrs by annexin V-FITC and PI staining based flow cytometry analysis (reference value: 5.02%); type: functional
compound,measurement,setting,value
CC(C)[C@]12O[C@H]1[C@@H]1O[C@]13[C@]1(O[C@H]1C[C@H]1C4=C(CC[C@@]13C)C(=S)OC4)[C@@H]2O,Activity,AGS [1],Active
same,Activity,[2],Non-toxic
same,Activity,AGS [3],0.55%
same,Activity,AGS [4],0.73%
same,Activity,HGC-27 [5],9.29%
same,Activity,HGC-27 [6],Active
same,Activity,AGS [7],31.7%
same,Activity,HGC-27 [8],Active
same,Activity,HGC-27 [9],10.5%
